Assay results as given in patent US20240190880A1 (THE REGENTS OF THE UNIVERSITY OF MICHIGAN, priority 2021, published 2024).

Biological target: T1, ER (Homo sapiens, UniProt P03372)
T1 construct: host or cells: T47D and MCF7 human breast cancer cells
T1 sequence (P03372 1-595): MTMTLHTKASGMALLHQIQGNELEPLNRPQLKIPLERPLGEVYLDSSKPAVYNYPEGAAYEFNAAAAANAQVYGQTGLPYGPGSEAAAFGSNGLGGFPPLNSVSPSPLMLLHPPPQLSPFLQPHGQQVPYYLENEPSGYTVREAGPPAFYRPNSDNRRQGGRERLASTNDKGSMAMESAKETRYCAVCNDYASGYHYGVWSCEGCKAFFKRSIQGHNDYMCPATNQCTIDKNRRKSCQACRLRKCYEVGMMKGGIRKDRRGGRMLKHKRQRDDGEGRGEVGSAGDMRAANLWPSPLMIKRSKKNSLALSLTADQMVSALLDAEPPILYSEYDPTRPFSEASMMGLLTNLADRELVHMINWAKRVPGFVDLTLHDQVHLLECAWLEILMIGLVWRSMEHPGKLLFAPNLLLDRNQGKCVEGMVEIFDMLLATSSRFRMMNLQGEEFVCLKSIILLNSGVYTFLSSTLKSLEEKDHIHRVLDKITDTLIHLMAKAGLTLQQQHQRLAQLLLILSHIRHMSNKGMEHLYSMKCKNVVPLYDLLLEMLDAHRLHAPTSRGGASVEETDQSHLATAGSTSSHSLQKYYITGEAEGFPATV
Assay: ER degradation activity, in-cell western blot analysis in T47D cells
Type: cell-based
Settings: 16 hours, Table A does not say which cell line (T47D or MCF7), read-out: Potency (DC50)
Summary of the method: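 Human T47D cells (DMEM, 10% FBS) are dosed for 16 h with 0.5% DMSO final and probed with 680- and 800-dye secondary antibodies. Relative ER is calculated against vehicle and untreated wells.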

DC50 [nM] | SMILES
10 to 100 | C[C@@H]1Cc2c([nH]c3ccccc23)[C@@H](c2c(F)cc(N3CCCC4(CCN(C(=O)CN5Cc6cc7c(cc6C5)C(=O)N(C5CCC(=O)NC5=O)C7)C4)C3)cc2F)N1CC(F)F (stereo partly drawn) [E 67, 3-(6-(2-(7-(4-((1R,3R)-2-(2,2-difluoroethyl)-3-methyl-2,3,4,9-tetrahydro-1H-pyrido[3,4-b]indol-1-yl)-3,5-difluorophenyl)-2,7-diazaspiro[4.5]decan-2-yl)-2-oxoethyl)-1-oxo-3,5,6,7-tetrahydropyrrolo[3,4-f]isoindol-2(1H)-yl)piperidine-2,6-dione]
10 to 100 | C[C@@H]1Cc2c([nH]c3ccccc23)[C@@H](c2c(F)cc(N3CCC4(CCN(C(=O)CN5Cc6cc7c(cc6C5)C(=O)N(C5CCC(=O)NC5=O)C7)C4)C3)cc2F)N1CC(F)F (stereo partly drawn) [E 68, 3-(6-(2-(7-(4-((1R,3R)-2-(2,2-difluoroethyl)-3-methyl-2,3,4,9-tetrahydro-1H-pyrido[3,4-b]indol-1-yl)-3,5-difluorophenyl)-2,7-diazaspiro[4.4]nonan-2-yl)-2-oxoethyl)-1-oxo-3,5,6,7-tetrahydropyrrolo[3,4-f]isoindol-2(1H)-yl)piperidine-2,6-dione]
> 100 | C[C@@H]1Cc2c([nH]c3ccccc23)[C@@H](c2c(F)cc(N3CC4(CCCN(C(=O)CN5Cc6cc7c(cc6C5)C(=O)N(C5CCC(=O)NC5=O)C7)C4)C3)cc2F)N1CC(F)F (stereo partly shown) [E 69]
10 to 100 | C[C@@H]1Cc2c([nH]c3ccccc23)[C@@H](c2c(F)cc(N3CCCC4(CN(C(=O)CN5Cc6cc7c(cc6C5)C(=O)N(C5CCC(=O)NC5=O)C7)C4)C3)cc2F)N1CC(F)F (stereo partly drawn) [E 70, 3-(6-(2-(6-(4-((1R,3R)-2-(2,2-difluoroethyl)-3-methyl-2,3,4,9-tetrahydro-1H-pyrido[3,4-b]indol-1-yl)-3,5-difluorophenyl)-2,6-diazaspiro[3.5]nonan-2-yl)-2-oxoethyl)-1-oxo-3,5,6,7-tetrahydropyrrolo[3,4-f]isoindol-2(1H)-yl)piperidine-2,6-dione]
< 10 | C[C@@H]1Cc2c([nH]c3ccccc23)[C@@H](c2c(F)cc(N3CC4(CN(C(=O)CN5Cc6cc7c(cc6C5)C(=O)N(C5CCC(=O)NC5=O)C7)C4)C3)cc2F)N1CC(F)F (stereo partly drawn) [E 71, 3-(6-(2-(6-(4-((1R,3R)-2-(2,2-difluoroethyl)-3-methyl-2,3,4,9-tetrahydro-1H-pyrido[3,4-b]indol-1-yl)-3,5-difluorophenyl)-2,6-diazaspiro[3.3]heptan-2-yl)-2-oxoethyl)-1-oxo-3,5,6,7-tetrahydropyrrolo[3,4-f]isoindol-2(1H)-yl)piperidine-2,6-dione]
< 10 | C[C@@H]1Cc2c([nH]c3ccccc23)[C@@H](c2c(F)cc(N3CCC4(CN(C(=O)CN5Cc6cc7c(cc6C5)C(=O)N(C5CCC(=O)NC5=O)C7)C4)C3)cc2F)N1CC(F)F (stereo partly drawn) [E 72, 3-(6-(2-(6-(4-((1R,3R)-2-(2,2-difluoroethyl)-3-methyl-2,3,4,9-tetrahydro-1H-pyrido[3,4-b]indol-1-yl)-3,5-difluorophenyl)-2,6-diazaspiro[3.4]octan-2-yl)-2-oxoethyl)-1-oxo-3,5,6,7-tetrahydropyrrolo[3,4-f]isoindol-2(1H)-yl)piperidine-2,6-dione]
< 10 | C[C@@H]1Cc2c([nH]c3ccccc23)[C@@H](c2c(F)cc(N3CC4(CCN(CC(=O)N5Cc6cc7c(cc6C5)C(=O)N(C5CCC(=O)NC5=O)C7)C4)C3)cc2F)N1CC(F)F (stereo partly drawn) [E 73, 3-(6-(2-(2-(4-((1R,3R)-2-(2,2-difluoroethyl)-3-methyl-2,3,4,9-tetrahydro-1H-pyrido[3,4-b]indol-1-yl)-3,5-difluorophenyl)-2,6-diazaspiro[3.4]octan-6-yl)acetyl)-1-oxo-3,5,6,7-tetrahydropyrrolo[3,4-f]isoindol-2(1H)-yl)piperidine-2,6-dione]
10 to 100 | C[C@@H]1Cc2c([nH]c3ccccc23)[C@@H](c2c(F)cc(N3CC4(CCN(CC(=O)N5Cc6cc7c(cc6C5)C(=O)N(C5CCC(=O)NC5=O)C7=O)C4)C3)cc2F)N1CC(F)F (stereo partly drawn) [E 74, 6-(2-(2-(4-((1R,3R)-2-(2,2-difluoroethyl)-3-methyl-2,3,4,9-tetrahydro-1H-pyrido[3,4-b]indol-1-yl)-3,5-difluorophenyl)-2,6-diazaspiro[3.4]octan-6-yl)acetyl)-2-(2,6-dioxopiperidin-3-yl)-6,7-dihydropyrrolo[3,4-f]isoindole-1,3(2H,5H)-dione]
10 to 100 | C[C@@H]1Cc2c([nH]c3ccccc23)[C@@H](c2c(F)cc(N3CCC4(CCN(CC(=O)N5Cc6cc7c(cc6C5)C(=O)N(C5CCC(=O)NC5=O)C7)C4)C3)cc2F)N1CC(F)F (stereo partly drawn) [E 75, 3-(6-(2-(7-(4-((1R,3R)-2-(2,2-difluoroethyl)-3-methyl-2,3,4,9-tetrahydro-1H-pyrido[3,4-b]indol-1-yl)-3,5-difluorophenyl)-2,7-diazaspiro[4.4]nonan-2-yl)acetyl)-1-oxo-3,5,6,7-tetrahydropyrrolo[3,4-f]isoindol-2(1H)-yl)piperidine-2,6-dione]
> 100 | C[C@@H]1Cc2c([nH]c3ccccc23)[C@@H](c2c(F)cc(N3CCC4(CCN(CC(=O)N5Cc6cc7c(cc6C5)C(=O)N(C5CCC(=O)NC5=O)C7=O)C4)C3)cc2F)N1CC(F)F (stereo partly drawn) [E 76, 6-(2-(7-(4-((1R,3R)-2-(2,2-difluoroethyl)-3-methyl-2,3,4,9-tetrahydro-1H-pyrido[3,4-b]indol-1-yl)-3,5-difluorophenyl)-2,7-diazaspiro[4.4]nonan-2-yl)acetyl)-2-(2,6-dioxopiperidin-3-yl)-6,7-dihydropyrrolo[3,4-f]isoindole-1,3(2H,5H)-dione]
< 10 | C[C@@H]1Cc2c([nH]c3ccccc23)[C@@H](c2c(F)cc(N3CC4(CCN(C(=O)CN5Cc6cc7c(cc6C5)C(=O)N(C5CCC(=O)NC5=O)C7=O)C4)C3)cc2F)N1CC(F)F (stereo partly drawn) [E 77, 6-(2-(2-(4-((1R,3R)-2-(2,2-difluoroethyl)-3-methyl-2,3,4,9-tetrahydro-1H-pyrido[3,4-b]indol-1-yl)-3,5-difluorophenyl)-2,6-diazaspiro[3.4]octan-6-yl)-2-oxoethyl)-2-(2,6-dioxopiperidin-3-yl)-6,7-dihydropyrrolo[3,4-f]isoindole-1,3(2H,5H)-dione]
> 100 | C[C@@H]1Cc2c([nH]c3ccccc23)[C@@H](c2c(F)cc(N3CCCC4(CCN(C(=O)CN5Cc6cc7c(cc6C5)C(=O)N(C5CCC(=O)NC5=O)C7=O)C4)C3)cc2F)N1CC(F)F (stereo partly drawn) [E 78, 6-(2-(7-(4-((1R,3R)-2-(2,2-difluoroethyl)-3-methyl-2,3,4,9-tetrahydro-1H-pyrido[3,4-b]indol-1-yl)-3,5-difluorophenyl)-2,7-diazaspiro[4.5]decan-2-yl)-2-oxoethyl)-2-(2,6-dioxopiperidin-3-yl)-6,7-dihydropyrrolo[3,4-f]isoindole-1,3(2H,5H)-dione]
10 to 100 | C[C@@H]1Cc2c([nH]c3ccccc23)[C@@H](c2c(F)cc(N3CCC4(CCN(C(=O)CN5Cc6cc7c(cc6C5)C(=O)N(C5CCC(=O)NC5=O)C7=O)C4)C3)cc2F)N1CC(F)F (stereo partly drawn) [E 79, 6-(2-(7-(4-((1R,3R)-2-(2,2-difluoroethyl)-3-methyl-2,3,4,9-tetrahydro-1H-pyrido[3,4-b]indol-1-yl)-3,5-difluorophenyl)-2,7-diazaspiro[4.4]nonan-2-yl)-2-oxoethyl)-2-(2,6-dioxopiperidin-3-yl)-6,7-dihydropyrrolo[3,4-f]isoindole-1,3(2H,5H)-dione]
10 to 100 | C[C@@H]1Cc2c([nH]c3ccccc23)[C@@H](c2c(F)cc(N3CCCC4(CN(C(=O)CN5Cc6cc7c(cc6C5)C(=O)N(C5CCC(=O)NC5=O)C7=O)C4)C3)cc2F)N1CC(F)F (stereo partly drawn) [E 81, 6-(2-(6-(4-((1R,3R)-2-(2,2-difluoroethyl)-3-methyl-2,3,4,9-tetrahydro-1H-pyrido[3,4-b]indol-1-yl)-3,5-difluorophenyl)-2,6-diazaspiro[3.5]nonan-2-yl)-2-oxoethyl)-2-(2,6-dioxopiperidin-3-yl)-6,7-dihydropyrrolo[3,4-f]isoindole-1,3(2H,5H)-dione]
< 10 | C[C@@H]1Cc2c([nH]c3ccccc23)[C@@H](c2c(F)cc(N3CC4(CN(C(=O)CN5Cc6cc7c(cc6C5)C(=O)N(C5CCC(=O)NC5=O)C7=O)C4)C3)cc2F)N1CC(F)F (stereo partly drawn) [E 82, 6-(2-(6-(4-((1R,3R)-2-(2,2-difluoroethyl)-3-methyl-2,3,4,9-tetrahydro-1H-pyrido[3,4-b]indol-1-yl)-3,5-difluorophenyl)-2,6-diazaspiro[3.3]heptan-2-yl)-2-oxoethyl)-2-(2,6-dioxopiperidin-3-yl)-6,7-dihydropyrrolo[3,4-f]isoindole-1,3(2H,5H)-dione]
< 10 | C[C@@H]1Cc2c([nH]c3ccccc23)[C@@H](c2c(F)cc(N3CCC4(CN(C(=O)CN5Cc6cc7c(cc6C5)C(=O)N(C5CCC(=O)NC5=O)C7=O)C4)C3)cc2F)N1CC(F)F (stereo partly drawn) [E 83, 6-(2-(6-(4-((1R,3R)-2-(2,2-difluoroethyl)-3-methyl-2,3,4,9-tetrahydro-1H-pyrido[3,4-b]indol-1-yl)-3,5-difluorophenyl)-2,6-diazaspiro[3.4]octan-2-yl)-2-oxoethyl)-2-(2,6-dioxopiperidin-3-yl)-6,7-dihydropyrrolo[3,4-f]isoindole-1,3(2H,5H)-dione]
